The source of these data is patent US9718834B2, “Processes and intermediates for making a JAK inhibitor” (Incyte Corporation, priority 2011, dated 2017).

pIC50: −log10 of the molar value.

The target of the experiment is T1, human JAK1 (a.a. 837-1142) (Homo sapiens, UniProt P23458).
T1 construct: human JAK1 (a.a. 837-1142); His tag (N); made in house; host or cells: insect cells (baculovirus)
Kind of experiment: In vitro JAK kinase assay (HTRF, phosphorylation of biotinylated peptide), JAK1. It is filed as biochemical. The conditions noted are these: measured at 1 mM ATP. The protocol:
The compound of Formula I herein was tested for inhibitory activity of JAK targets according to the following in vitro assay described in Park et al., Analytical Biochemistry 1999, 269, 94-104. The catalytic domains of human JAK1 (a.a. 837-1142) and JAK2 (a.a. 828-1132) with an N-terminal His tag were expressed using baculovirus in insect cells and purified. The catalytic activity of JAK1 and JAK2 was assayed by measuring the phosphorylation of a biotinylated peptide. The phosphorylated peptide was detected by homogenous time resolved fluorescence (HTRF). IC50s of compounds were measured for each kinase in the 40 microL reactions that contain the enzyme, ATP and 500 nM peptide in 50 mM Tris (pH 7.8) buffer with 100 mM NaCl, 5 mM DTT, and 0.1 mg/mL (0.01%) BSA. For the 1 mM IC50 measurements, ATP concentration in the reactions was 1 mM. Reactions were carried out at room temperature for 1 hr and then stopped with 20 μL 45 mM EDTA, 300 nM SA-APC, 6 nM Eu-Py20 in assay buffer (Perkin Elmer, Boston, Mass.). Binding to the Europium labeled antibody took place for 40 minutes and HTRF signal was measured on a Fusion plate reader (Perkin Elmer, Boston, Mass.).
For orientation: In TR-FRET formats the signal depends on donor and acceptor labels being close together.

T1 sequence (P23458 849-1154): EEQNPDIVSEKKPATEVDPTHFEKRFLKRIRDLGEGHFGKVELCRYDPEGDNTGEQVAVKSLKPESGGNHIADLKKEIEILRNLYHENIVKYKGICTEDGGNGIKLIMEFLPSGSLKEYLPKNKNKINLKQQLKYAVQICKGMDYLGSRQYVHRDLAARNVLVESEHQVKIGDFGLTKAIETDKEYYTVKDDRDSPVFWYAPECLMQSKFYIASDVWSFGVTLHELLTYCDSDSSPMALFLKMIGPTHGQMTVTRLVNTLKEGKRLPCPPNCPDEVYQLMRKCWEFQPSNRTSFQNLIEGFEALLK

Regarding `N#CCC1(n2cc(-c3ncnc4[nH]ccc34)cn2)CN(C2CCN(C(=O)c3ccnc(C(F)(F)F)c3F)CC2)C1` [Example 1, {1-{1-[3-fluoro-2-(trifluoromethyl)isonicotinoyl]piperidin-4-yl}-3-[4-(7H-pyrrolo[2,3-d]pyrimidin-4-yl)-1H-pyrazol-1-yl]azetidin-3-yl}acetonitrile], the pIC50 was at least 8.30.

For orientation: pIC50 means −log10 of the IC50, conventionally taken in molar units. A low value points to a large IC50.
